Where a name gives a salt, the structure may show the parent alone.
Target: human MCH-1 receptor (Homo sapiens, UniProt Q99705)
Assay: Binding assay for human melanin-concentrating hormone (MCH-1) receptor, radioligand displacement on CHO-K1 cell membranes
Conditions: for inhibition at 1 µM: read-out: MCH1 % inhibition @ 1 uM

Chain of human MCH-1 receptor (Q99705 whole entry): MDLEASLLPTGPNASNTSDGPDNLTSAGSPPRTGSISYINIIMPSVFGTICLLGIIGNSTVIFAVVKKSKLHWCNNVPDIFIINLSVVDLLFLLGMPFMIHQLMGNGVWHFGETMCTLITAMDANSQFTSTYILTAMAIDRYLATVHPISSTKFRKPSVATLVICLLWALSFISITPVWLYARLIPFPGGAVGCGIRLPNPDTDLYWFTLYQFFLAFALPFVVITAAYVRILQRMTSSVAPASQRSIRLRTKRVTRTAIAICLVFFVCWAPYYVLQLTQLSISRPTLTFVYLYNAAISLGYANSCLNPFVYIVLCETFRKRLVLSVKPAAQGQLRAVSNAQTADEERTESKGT

Structure (SMILES)	Ki	inhibition at 1 µM
O=c1cc(OCc2ccc(F)cn2)ccn1-c1ccc2c3c(sc2c1)CNCCC3 [Example 18, 4-((5-Fluoropyridin-2-yl)methoxy)-1-(2,3,4,5-tetrahydro-1H-benzothieno[2,3-c]azepin-8-yl)pyridin-2(1H)-one]	12 nM	–
O=c1cc(OCc2ccccc2)ccn1-c1ccc2c3c(oc2c1)CCNCC3 [Example 41, 4-(Benzyloxy)-1-(2,3,4,5-tetrahydro-1H-benzofuro[2,3-d]azepin-8-yl)pyridin-2(1H)-one hydrochloride]	5.7 nM	–
C[C@@H]1NCCc2oc3cc(-n4ccc(OCc5ccccc5)cc4=O)ccc3c21 [Example 33, (S)-4-(Benzyloxy)-1-(1-methyl-1,2,3,4-tetrahydrobenzofuro[3,2-c]pyridin-7-yl)pyridin-2(1H)-one hydrochloride]	6 nM	–
O=c1cc(OCc2ccccc2)ccn1-c1ccc2c3c(oc2c1)CNCC3 [Example 2, 4-(Benzyloxy)-1-(1,2,3,4-tetrahydrobenzofuro[2,3-c]pyridin-7-yl)pyridin-2(1H)-one hydrochloride]	23 nM	–
O=c1cc(OCc2ccc(F)cn2)ccn1-c1ccc2c3c(oc2c1)CCNC3 [Example 7, 4-((5-Fluoropyridin-2-yl)methoxy)-1-(1,2,3,4-tetrahydrobenzofuro[3,2-c]pyridin-7-yl)pyridin-2(1H)-one hydrochloride]	7.3 nM	–
O=c1cc(OCc2ccc(Cl)cn2)ccn1-c1ccc2c3c(oc2c1)CCNCC3 [Example 42, 4-((5-Chloropyridin-2-yl)methoxy)-1-(2,3,4,5-tetrahydro-1H-benzofuro[2,3-d]azepin-8-yl)pyridin-2(1H)-one hydrochloride]	4.7 nM	–
C[C@@H]1Cc2oc3cc(-n4ccc(OCc5ccc(F)cn5)cc4=O)ccc3c2CN1 [Example 9, (R)-4-((5-Fluoropyridin-2-yl)methoxy)-1-(3-methyl-1,2,3,4-tetrahydrobenzofuro[3,2-c]pyridin-7-yl)pyridin-2(1H)-one]	10 nM	–
O=c1cc(-c2ccc(C(F)(F)F)cn2)ccn1-c1ccc2c3c(sc2c1)CNCC3 [Example 12, 1-(1,2,3,4-Tetrahydrobenzothieno[2,3-c]pyridin-7-yl)-4-(5-(trifluoromethyl)pyridin-2-yl)pyridin-2(1H)-one hydrochloride]	93 nM	–
O=c1cc(OCc2ccccc2)ccn1-c1ccc2c3c(sc2c1)CCNCC3 [Example 22, 4-(Benzyloxy)-1-(2,3,4,5-tetrahydro-1H-benzothieno[2,3-d]azepin-8-yl)pyridin-2(1H)-one]	4.4 nM	–
O=c1cc(OCc2ccc(F)cn2)ccn1-c1ccc2c3c(sc2c1)CNCC3 [Example 14, 4-((5-Fluoropyridin-2-yl)methoxy)-1-(1,2,3,4-tetrahydrobenzothieno[2,3-c]pyridin-7-yl)pyridin-2(1H)-one hydrochloride]	6.2 nM	–
O=c1cc(OCc2ccc(F)cn2)ccn1-c1ccc2c3c(oc2c1)CCNCC3 [Example 39, 4-((5-Fluoropyridin-2-yl)methoxy)-1-(2,3,4,5-tetrahydro-1H-benzofuro[2,3-d]azepin-8-yl)pyridin-2(1H)-one hydrochloride]	9 nM	–
CN1CCCc2oc3cc(-n4ccc(OCc5cccc(C(F)(F)F)n5)cc4=O)ccc3c2C1 [Example 49, 1-(2-Methyl-2,3,4,5-tetrahydro-1H-benzofuro[3,2-c]azepin-8-yl)-4-((6-(trifluoromethyl)pyridin-2-yl)methoxy)pyridin-2(1H)-one hydrochloride]	22 nM	–
O=c1cc(OCc2ccccc2)ccn1-c1ccc2c3c(oc2c1)CCCNC3 [Example 40, 4-(Benzyloxy)-1-(2,3,4,5-tetrahydro-1H-benzofuro[3,2-c]azepin-8-yl)pyridin-2(1H)-one hydrochloride]	3.4 nM	–
O=c1cc(OCc2ccc(F)cn2)cnn1-c1ccc2c3c(oc2c1)CCCNC3 [Example 44, 5-((5-Fluoropyridin-2-yl)methoxy)-2-(2,3,4,5-tetrahydro-1H-benzofuro[3,2-c]azepin-8-yl)pyridazin-3(2H)-one hydrochloride]	13 nM	–
O=c1cc(OCc2ccc(Cl)cn2)ccn1-c1ccc2c3c(sc2c1)CNCC3 [Example 13, 4-((5-Chloropyridin-2-yl)methoxy)-1-(1,2,3,4-tetrahydrobenzothieno[2,3-c]pyridin-7-yl)pyridin-2(1H)-one hydrochloride]	3.1 nM	–
O=c1cc(OCc2ccc(F)cn2)ccn1-c1ccc2c3c(sc2c1)CCNC3 [Example 55, 4-((5-Fluoropyridin-2-yl)methoxy)-1-(1,2,3,4-tetrahydrobenzothieno[3,2-c]pyridin-7-yl)pyridin-2(1H)-one hydrochloride]	2.7 nM	–
O=c1cc(OCc2ccc(Cl)cn2)ccn1-c1ccc2c3c(sc2c1)CCNCC3 [Example 20, 4-((5-Chloropyridin-2-yl)methoxy)-1-(2,3,4,5-tetrahydro-1H-benzothieno[2,3-d]azepin-8-yl)pyridin-2(1H)-one]	3.8 nM	–
O=c1cc(-c2ccc(C(F)(F)F)cn2)ccn1-c1ccc2c3c(oc2c1)CCNC3 [Example 11, 1′-(1,2,3,4-Tetrahydrobenzofuro[3,2-c]pyridin-7-yl)-5-(trifluoromethyl)-[2,4′-bipyridin]-2′(1′H)-one hydrochloride]	166 nM	–
O=c1cc(OCc2cccc(C(F)(F)F)n2)ccn1-c1ccc2c3c(oc2c1)CCCNC3 [Example 43, 1-(2,3,4,5-Tetrahydro-1H-benzofuro[3,2-c]azepin-8-yl)-4-((6-(trifluoromethyl)pyridin-2-yl)methoxy)pyridin-2(1H)-one hydrochloride]	9.7 nM	–
O=c1cc(OCc2ccc(Cl)cn2)ccn1-c1ccc2c3c(oc2c1)CCNC3 [Example 10, 4-((5-Chloropyridin-2-yl)methoxy)-1-(1,2,3,4-tetrahydrobenzofuro[3,2-c]pyridin-7-yl)pyridin-2(1H)-one hydrochloride]	3.3 nM	–
C[C@@H]1Cc2oc3cc(-n4ccc(OCc5ccccn5)cc4=O)ccc3c2CN1 [Example 8, (R)-1-(3-Methyl-1,2,3,4-tetrahydrobenzofuro[3,2-c]pyridin-7-yl)-4-(pyridin-2-ylmethoxy)pyridin-2(1H)-one hydrochloride]	57 nM	–

The next lines start with the values.

Ki	inhibition at 1 µM	Structure (SMILES)
–	66%	CC(C)N1CCCc2oc3cc(N4CCN(CCc5ccc(Cl)cn5)CC4=O)ccc3c2C1 [Example 97, 4-(2-(5-Chloropyridin-2-yl)ethyl)-1-(2-isopropyl-2,3,4,5-tetrahydro-1H-benzofuro[3,2-c]azepin-8-yl)piperazin-2-one hydrochloride]
–	34%	O=c1cc(OCc2ccc(F)cn2)ccn1-c1ccc2oc3c(c2c1)CNCCC3 [Example 75, 4-((5-Fluoropyridin-2-yl)methoxy)-1-(2,3,4,5-tetrahydro-1H-benzofuro[3,2-c]azepin-9-yl)pyridin-2(1H)-one hydrochloride]
8.3 nM	–	O=c1cc(OCc2ccc(F)cn2)ccn1-c1ccc2c3c(oc2c1)CCN1CCCC31 (centres unmarked) [Example 80, 4-((5-Fluoropyridin-2-yl)methoxy)-1-(1,2,3,5,6,11c-hexahydrobenzofuro[2,3-g]indolizin-9-yl)pyridin-2(1H)-one hydrochloride]
–	12%	O=c1cc(OCc2ccccc2)ccn1-c1ccc2oc3c(c2c1)CCCNC3 [Example 110, 4-(Benzyloxy)-1-(2,3,4,5-tetrahydro-1H-benzofuro[2,3-c]azepin-7-yl)pyridin-2(1H)-one hydrochloride]
11 nM	–	CC(C)N1CCc2c(sc3cc(-n4ccc(OCc5ccc(F)cn5)cc4=O)ccc23)C1 [Example 57, 4-((5-Fluoropyridin-2-yl)methoxy)-1-(2-isopropyl-1,2,3,4-tetrahydrobenzothieno[2,3-c]pyridin-7-yl)pyridin-2(1H)-one hydrochloride]
52 nM	–	O=C1CN(CCc2ccc(F)cn2)CCN1c1ccc2c3c(oc2c1)CCCNC3 [Example 83, 4-(2-(5-Fluoropyridin-2-yl)ethyl)-1-(2,3,4,5-tetrahydro-1H-benzofuro[3,2-c]azepin-8-yl)piperazin-2-one hydrochloride]
373 nM	–	O=c1cc(OCc2ccccc2)ccn1-c1ccc2oc3c(c2c1)CNCC3 [Example 74, 4-(Benzyloxy)-1-(1,2,3,4-tetrahydrobenzofuro[3,2-c]pyridin-8-yl)pyridin-2(1H)-one hydrochloride]
69 nM	–	CN1CCCc2oc3cc(N4CCN(CCc5ccc(Cl)cc5)CC4=O)ccc3c2C1 [Example 93, 4-(4-Chlorophenethyl)-1-(2-methyl-2,3,4,5-tetrahydro-1H-benzofuro[3,2-c]azepin-8-yl)piperazin-2-one hydrochloride]
2.9 nM	–	O=c1cc(OCc2ccc(Cl)cn2)ccn1-c1ccc2c3c(sc2c1)CCCNC3 [Example 123, 4-((5-Chloropyridin-2-yl)methoxy)-1-(2,3,4,5-tetrahydro-1H-benzothieno[3,2-c]azepin-8-yl)pyridin-2(1H)-one hydrochloride]
34 nM	–	O=c1cc(OCc2ccc(F)cn2)cnn1-c1ccc2c3c(sc2c1)CNCC3 [Example 61, 5-((5-Fluoropyridin-2-yl)methoxy)-2-(1,2,3,4-tetrahydrobenzothieno[2,3-c]pyridin-7-yl)pyridazin-3(2H)-one]
33 nM	–	O=C1CN(CCc2ccc(Cl)cc2)CCN1c1ccc2c3c(sc2c1)CNCC3 [Example 63, 4-(4-Chlorophenethyl)-1-(1,2,3,4-tetrahydrobenzothieno[2,3-c]pyridin-7-yl)piperazin-2-one hydrochloride]
9.5 nM	–	CCN1CCc2c(sc3cc(-n4ccc(OCc5ccc(F)cn5)cc4=O)ccc23)C1 [Example 56, 1-(2-Ethyl-1,2,3,4-tetrahydrobenzothieno[2,3-c]pyridin-7-yl)-4-((5-fluoropyridin-2-yl)methoxy)pyridin-2(1H)-one hydrochloride]
3.7 nM	–	O=c1cc(OCc2ccc(F)cn2)ccn1-c1ccc2c3c(sc2c1)CCCNC3 [Example 124, 4-((5-Fluoropyridin-2-yl)methoxy)-1-(2,3,4,5-tetrahydro-1H-benzothieno[3,2-c]azepin-8-yl)pyridin-2(1H)-one hydrochloride]
98 nM	–	O=C1CN(CCc2ccc(Cl)cc2)CCN1c1ccc2c3c(oc2c1)CCNCC3 [Example 99, 4-(4-Chlorophenethyl)-1-(2,3,4,5-tetrahydro-1H-benzofuro[2,3-d]azepin-8-yl)piperazin-2-one hydrochloride]

Source: patent publication US20140163012A1, “PYRIDO-/AZEPINO-BENZOFURAN AND PYRIDO-/AZEPINO-BENZOTHIOPHENE MCH-1 ANTAGONISTS, METHODS OF MAKING, AND USE THEREOF” (Albany Molecular Research, Inc., priority 2012, published 2014)
